# Measurements taken from article PMC10784468 (Nature Communications, 2024).
# Positions of bridges follow the written chain, without caps; N, C: chain ends. Residues, ends and D or L forms follow the SMILES beside them. *: point of attachment. X1 = O=C(O)c1ccc(-c2c3nc(c(-c4ccc(C(=O)O)cc4)c4ccc([nH]4)c(-c4ccc(C(=O)*)cc4)c4nc(c(-c5ccc(C(=O)O)cc5)c5ccc2[nH]5)C=C4)C=C3)cc1; X2 = O=C(O)C/C(=C/C(=O)*)C(=O)O
# What was measured:
# [1] = tested on: EJ tumor tissues; assay: Tumor GSH content detection; type: in vivo, BALB/c nude mice; conditions: for Relative content of GSH: tumor
# Method: (§1) EJ tumor tissues were collected under euthanasia at the end of treatment and washed with PBS for 3 times. Afterwards, the tumor lysates were collected by centrifugation at 8000 rpm for 10 min at 4 °C after lysed with Frozen Type Tissuelyser. Finally, the GSH contents were measured with a GSH Assay Kit based on the manufacturer’s instructions.
# [2] = ζ-potential in PBS; type: physicochemical
# Method: Supplementary Fig. 12. ζ-potential change of Gi-F-CAA (40 μM) in PBS (0.01 M, pH 7.4 or 6.5) (n=3
# experimental repeats). Experiment was independently repeated three times with similar results. Values are
# (1 picture or pasted object on this page, not shown here)
# Supplementary Fig. 13. ζ-potential of NGi-F-CAA, Gi-F and Gi-F-SA (pH 7.4) (40 μM) in PBS (n=3
# [3] = molecular target: T1, GPX4 (Homo sapiens, UniProt P36969); assay: Tumor GPX4 activity detection; type: in vivo, BALB/c nude mice; set-up: from tissue; host or cells: EJ xenograft tumour tissue from BALB/c nude mice
# T1 sequence (P36969 1-197): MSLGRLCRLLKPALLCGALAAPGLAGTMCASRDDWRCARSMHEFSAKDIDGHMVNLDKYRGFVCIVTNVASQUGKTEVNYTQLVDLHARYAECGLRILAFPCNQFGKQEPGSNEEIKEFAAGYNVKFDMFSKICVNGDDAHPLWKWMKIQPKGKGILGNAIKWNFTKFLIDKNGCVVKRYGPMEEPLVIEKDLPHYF
# Method: as §1, with “5000” for “8000”, “by freeze-thaw treatment.” for “with Frozen Type Tissuelyser.”, “GPX4 activity” for “GSH contents”, “GPX” for “GSH”
# [4] = Particle size by DLS; type: physicochemical
# Method: Nano-ZS 3600 (Malvern Instruments, UK) was used to measure the size distribution of the peptide-porphyrin conjugate solutions. The conjugate solutions (40 μM) were incubated at pH 7.4 or pH 6.5 before measurements. An average value was determined by three repeated measurements at 25 °C for each sample. Besides, transmission electron microscopy (TEM, Tecnai G2 20 S-TWIN) was conducted to observe the morphology and diameters of conjugates in aqueous solution, The conjugates (50 μL, 40 μM) were kept in PB solution at pH 7.4 or pH 6.5, which were dropped on copper meshes. After 5 min, unnecessary liquid was removed and the uranyl acetate solution (10 μL) was dropped on this copper mesh to stain the samples for 10 min. Finally, the copper meshes were washed with deionized water, and dried at room temperature for observation.
# [5] = tested on: EJ tumor tissues; assay: Tumor MDA content detection; type: in vivo, BALB/c nude mice; conditions: for Relative content of MDA: tumor
# Method: as §1, with “8000 g” for “8000 rpm”, “the MDA” for “the GSH”, “measured by thiobarbituric acid (TBA) reaction” for “measured”, “a Malondialdehyde (MDA)” for “a GSH”, “Kit (Solarbio Science & Technology Co., Ltd., China, BC0025)” for “Kit”
# [6] = tested on: EJ xenograft tumor; assay: Penetration assay in tumor frozen sections (Cy labeled)
# Method: Firstly, EJ xenograft mice were administrated with Cy labeled Gi-F (8 mg/kg in 100 μL PBS) and Cy labeled Gi-F-CAA (8 mg/kg in 100 μL PBS) by intravenous injection. Afterward, EJ tumor tissues were entirely resected and protected from light. Subsequently, the tumor tissues were fixed with optimum cutting temperature (OCT) compound for 12 h at −20 °C avoiding light. Finally, the fixed tumor tissues were cut into sections and immediately observed with UltraVIEW VoX.
# [7] = tested on: EJ xenograft tumors; assay: In vivo antitumor evaluation in EJ xenograft model (tumor volume, tumor weight, body weight); conditions: 8 mg/kg i.v.; for mean tumor volume at 18 days post injection: six injections at 2-days intervals, n = 6; for Tumor weight: six injections, 18 days
# Method: Female BALB/c nude mice (~8 weeks, 18 g) were subcutaneously inoculated with 5 × 10^6 EJ cells resuspended in Matrigel. When the tumor size reached about 100 mm^3, EJ tumor-bearing mice were randomly divided into four groups and administrated with PBS, Gi-F (8 mg/kg in 100 μL PBS), Gi-F-SA (8 mg/kg in 100 μL PBS) and Gi-F-CAA (8 mg/kg in 100 μL PBS) by intravenous injection at 2-days intervals for six times. Individual tumor volume and bodyweight of mouse after different treatment was collected at 2-days intervals for analysis. Mice were killed at 18 days post treatment unless endpoints were exceeded. Moreover, tumors from all groups were harvested under euthanasia and weighed for analysis at the end of treatment.
# [8] = tested on: EJ cells; assay: Cytotoxicity assay (CCK-8) on EJ cells
# Method: Initially, EJ cells were seeded into 96 well plates at a density of 5 × 10^3 per well and incubated in a CO2 incubator overnight at 37 °C. Subsequently, Gi-F (pH = 7.4), Gi-F-SA (pH = 7.4), NGi-F-CAA (pH = 7.4), NGi-F-CAA (pH = 6.5), Gi-F-CAA (pH = 7.4) and Gi-F-CAA (pH = 6.5) at different concentrations (1, 2, 4, 8, 16, 32, 64, 128 and 256 μM) was added to the cells and further incubated for 48 h. Finally, the cell viability rate was calculated by (Sample wells-Blank wells)/(Control wells-Blank wells) × 100%.
# [9] = EJ tumor tissues, 8 mg/kg i.v., versus PBS, Gi-F and Gi-F-SA
molecule,measurement,setting,value
CC(C)C[C@H](NC(=O)c1ccc(-c2c3nc(c(-c4ccc(C(=O)O)cc4)c4ccc([nH]4)c(-c4ccc(C(=O)O)cc4)c4nc(c(-c5ccc(C(=O)O)cc5)c5ccc2[nH]5)C=C4)C=C3)cc1)C(=O)N[C@@H](CCCCNC(=O)/C=C(/CC(=O)O)C(=O)O)C(=O)N[C@@H](CC(C)C)C(=O)N[C@@H](CCCCN)C(=O)N[C@@H](CC(C)C)C(=O)N[C@@H](CCCCNC(=O)/C=C(/CC(=O)O)C(=O)O)C(=O)NCC(=O)N[C@@H](C)C(=O)N[C@H]1CSSC[C@@H](C(=O)N2CCC[C@H]2C(=O)N[C@H](C(=O)O)C(C)C)NC(=O)[C@@H]2CCCN2C(=O)[C@H](Cc2ccc(O)cc2)NC(=O)[C@H](CC(C)C)NC(=O)[C@@H]2CCCN2C(=O)[C@H](CC(C)C)NC(=O)[C@H](Cc2c[nH]c3ccccc23)NC(=O)[C@H](CC(N)=O)NC1=O [Gi-F-CAA] (X1-LK(X2)LKLK(X2)GACNWLPLYPCPV-OH; disulfide 9-17; C-terminus assumed),GSH levels of tumor tissues,[1]; [9],substantial reduction of GSH levels
same,Relative content of GSH,[1]; mice 1,0.248
same,Relative content of GSH,[1]; mice 2,0.322
same,Relative content of GSH,[1]; mice 3,0.359
same,Relative content of GSH,[1]; mice 4,0.285
same,Relative content of GSH,[1]; mice 5,0.331
same,Relative content of GSH,[1]; mice 6,0.276
same,ζ-potential change after incubation at pH 6.5,"[2]; 40 μM in PBS 0.01 M, pH 6.5",increased considerably
same,Zeta potential (mV),"[2]; pH 6.5, 0 min, mean",-25.5 mV
same,Zeta potential (mV),"[2]; pH 6.5, 10 min, mean",-19.8 mV
same,Zeta potential (mV),"[2]; pH 6.5, 30 min, mean",-12.4 mV
same,Zeta potential (mV),"[2]; pH 6.5, 60 min, mean",-7.6 mV
same,Zeta potential (mV),"[2]; pH 6.5, 90 min, mean",-6.4 mV
same,Zeta potential (mV),"[2]; pH 6.5, 120 min, mean",-5.5 mV
same,Zeta potential (mV),"[2]; pH 7.4, 0 min, mean",-27.3 mV
same,Zeta potential (mV),"[2]; pH 7.4, 10 min, mean",-25.6 mV
same,Zeta potential (mV),"[2]; pH 7.4, 30 min, mean",-24.4 mV
same,Zeta potential (mV),"[2]; pH 7.4, 60 min, mean",-23.4 mV
same,Zeta potential (mV),"[2]; pH 7.4, 90 min, mean",-22.6 mV
same,Zeta potential (mV),"[2]; pH 7.4, 120 min, mean",-22.5 mV
same,Relative activity of GPX4,[3]; mice 1,0.21
same,Relative activity of GPX4,[3]; mice 2,0.22
same,Relative activity of GPX4,[3]; mice 3,0.2
same,Relative activity of GPX4,[3]; mice 4,0.21
same,Relative activity of GPX4,[3]; mice 5,0.22
same,Relative activity of GPX4,[3]; mice 6,0.2
same,particle size (DLS) after incubation at pH 6.5 for 1 h,"[4]; 40 μM, PBS 0.01 M, pH 6.5, 1 h, 25 °C",78 ± 11 nm
same,particle size (DLS) before incubation,"[4]; 40 μM, PBS 0.01 M, pH 6.5, before incubation, 25 °C",13 ± 3 nm
same,particle size change (DLS) at pH 7.4,"[4]; 40 μM, PBS 0.01 M, pH 7.4",no obvious changes
same,size (DLS) at pH 7.4,"[4]; pH 7.4, peer review response",about 11 ± 2 nm
same,LPO levels of tumor tissues,[5]; [9],elevation
same,Relative content of MDA,[5]; mice 1,4.75
same,Relative content of MDA,[5]; mice 2,4.25
same,Relative content of MDA,[5]; mice 3,4.65
same,Relative content of MDA,[5]; mice 4,5.15
same,Relative content of MDA,[5]; mice 5,4.25
same,Relative content of MDA,[5]; mice 6,4.75
same,"tumor penetration, fluorescence distribution in tumor sections","[6]; EJ xenograft mice, Cy-labeled, 8 mg/kg i.v.",distributed all over the tumor tissues
same,mean tumor volume at 18 days post injection,[7],552 mm^3
same,Tumor weight,[7]; mice 1,0.398 g
same,Tumor weight,[7]; mice 2,0.419 g
same,Tumor weight,[7]; mice 3,0.47 g
same,Tumor weight,[7]; mice 4,0.318 g
same,Tumor weight,[7]; mice 5,0.548 g
same,Tumor weight,[7]; mice 6,0.402 g
same,cytotoxicity with ferroptosis inhibitor Fer-1,"[8]; EJ cells, pH 6.5, 48 h, Fer-1, Supplementary Fig. 26",successfully rescued by Fer-1
FeTCPP-LKLKLK(SA)GACNWLPLYPCPV (disulfide) [Gi-F-SA],Relative content of GSH,[1]; mice 1,0.8
same,Relative content of GSH,[1]; mice 2,0.832
same,Relative content of GSH,[1]; mice 3,0.874
same,Relative content of GSH,[1]; mice 4,0.837
same,Relative content of GSH,[1]; mice 5,0.887
same,Relative content of GSH,[1]; mice 6,0.74
same,Zeta potential (mV),"[2]; 40 μM in PBS, pH 7.4, mean of n = 3",-21.4 mV
same,Relative activity of GPX4,[3]; mice 1,0.79
same,Relative activity of GPX4,[3]; mice 2,0.8
same,Relative activity of GPX4,[3]; mice 3,0.76
same,Relative activity of GPX4,[3]; mice 4,0.79
same,Relative activity of GPX4,[3]; mice 5,0.8
same,Relative activity of GPX4,[3]; mice 6,0.76
same,Relative content of MDA,[5]; mice 1,1.35
same,Relative content of MDA,[5]; mice 2,1.45
same,Relative content of MDA,[5]; mice 3,1.2
same,Relative content of MDA,[5]; mice 4,1.75
same,Relative content of MDA,[5]; mice 5,1.45
same,Relative content of MDA,[5]; mice 6,1.3
same,"tumor penetration, fluorescence distribution in tumor sections","[6]; mouse, in vivo, iv, 8 mg/kg","penetrate into the tumor interior, while in a week fluorescence intensity"
same,mean tumor volume at 18 days post injection,[7],1204 mm^3
same,Tumor weight,[7]; mice 1,1.819 g
same,Tumor weight,[7]; mice 2,1.454 g
same,Tumor weight,[7]; mice 3,1.391 g
same,Tumor weight,[7]; mice 4,1.595 g
same,Tumor weight,[7]; mice 5,1.425 g
same,Tumor weight,[7]; mice 6,1.689 g
same,IC50,[8]; pH 7.4,40 µM
